Where two headings read alike, the source gives them in different places.
Experiments:
AmpC [1] = target: T1, AmpC (Escherichia coli, UniProt P00811); assay: Competitive inhibition assay with nitrocefin, Ki; type: biochemical; design: made in house; conditions: AmpC; values in nM
Procedure: (§1) The β-lactamases used in the present study were from a Clinical Biochemistry Laboratory collection (Department of Biotechnological and Applied Clinical Sciences, University of L’Aquila, L’Aquila, Italy). […] The concentration of each enzyme was determined by a Bradford assay.
(§2) The plot v0/vi versus [I] yielded a straight line of slope KM/(KM + S) × Ki.
Figure 9 Compounds synthesised and their biological evaluation. AC = Amplification coefficient. […] Light blue indicates the compounds from the AmpC screening.

KPC-2 [2] = target: T2, KPC-2 (Klebsiella pneumoniae, UniProt Q9F663); assay: Competitive inhibition assay with nitrocefin, Ki; type: biochemical; conditions: for improvement compared with the warhead activity: Ki vs KPC-2 relative to warhead 3 (Ki = 2.3 µM)
T2 construct: made in house
Procedure: as §1, §2
AC = Amplification coefficient. In the AC column, between brackets reports the regioisomeric ratio observed (1,4- vs. 1,5-) and bold reports the synthesised regioisomer. Light blue indicates the compounds obtained from the KPC-2 screening.

KPC-2 [3] = target: T2, KPC-2; conditions: KPC-2 20 mol%; warhead 3 + alkyne cluster; 37 °C, 24 h
Procedure: Starting from the azido-functionalised boronic acid 3, optimised conditions (see SI Table S2) were applied in combination with the 90-component alkyne library. The reactions were conducted in 0.2 mL microtubes in a 95:5 sodium phosphate 50 mM pH 7.0:DMSO mixture (final volume 100 µL), stirring at 300 rpm at 37 °C for 24 h (Scheme 1).
The experiments were conducted in triplicate, using a reaction mixture containing one equivalent of warhead 3, five equivalents of each alkyne cluster (9 alkynes), and 20 mol% KPC-2 as the catalyst. Product formation was monitored directly from the crude mixture using a hybrid quadrupole orbitrap LC–MS system in the ESI+ or ESI- mode after 24 h. Peak areas of the desired products were compared across three conditions: with KPC-2, without any enzyme, and with bovine serum albumin (BSA). […] The resulting ratio, named as the amplification coefficient (AC), was calculated from the peak area of the product obtained in the presence of KPC-2 vs. the one acquired with the controls.
(§3) Binary and multicomponent KTGS. […] The microtube was shaken at 300 rpm at 37 °C for 24 h. Reactions were transferred into a LC–MS vial and directly injected (10 µL) for liquid chromatography–mass spectrometry (LC–MS). Reactions were analysed with an Ultimate 3000 UHPLC coupled to a Q-exactive hybrid quadrupole-orbitrap mass spectrometer via an HESI-II heated electrospray ionisation source. The chromatographic separation was performed injecting a 10 µL sample volume on a Hypersil Gold C18 100 × 2.1 mm, 1.9 µm column (Thermo Fisher Scientific), kept at 30 °C eluting with 0.3 mL/min flow of ultrapure water (A) and methanol (B), both with 0.1% formic acid as mobile phase. […] A data-dependent mass spectrometric data acquisition strategy was used for full MS/DD-MS2. […] An inclusion list was eventually used to target the MS2 spectra acquisition of preferred ion species. Detection was based on calculated [M+H]^+ and [M−H]^− molecular ions with a 5 ppm accuracy tolerance for their respective ion chromatogram extraction. Peak retention time and area of detected target compounds was used for their detection and semi-quantitative evaluation in between reaction batches.
(§4) For controls (buffer and BSA), AmpC/KPC-2 is replaced with no enzyme (buffer volume 95 µL) and BSA (stock 100 µM, final concentration 5 µM, buffer volume 90 µL). Hits were identified in each cluster by mass and retention time and compared with both controls (buffer and BSA) and synthetically prepared triazoles obtained in mixtures.

AmpC [4] = target: T1, AmpC; design: made in house; conditions: AmpC 20 mol%; warhead 3 + alkyne cluster; 37 °C, 24 h
Procedure: Following the same conditions used for the multicomponent screening with KPC-2, the in situ click chemistry experiment was performed using AmpC as template.
as §3, §4

ADC-7 = target: ADC-7; design: method as in PMID 26102369, PMID 34970229, PMID 37358467, PMID 26729491; conditions: ref [17],[19],[35],[36]; cited from earlier work
[5] = Stability in phosphate buffer by 1H NMR; type: physicochemical
Excerpt: Previously, even a low level of affinity was reported to be sufficient for the target-templated reaction. Therefore, to enable in situ click chemistry within the β-lactamase’s binding pocket, a series of bifunctional “warheads” displaying two defined features were designed. Firstly, the presence of the boronic acid moiety serves as an anchor to the SBLs catalytic serine. Secondly, the azido functionalisation guarantees the clickable building block for generation of bioactive triazoles within the target active site. Thus, one 2-azido-1-acylamino-ethaneboronic acid and three azidomethyl-phenylboronic acids were synthesised and characterised (Figure 3). […] Herein, the amide side chain from cephalothin is well known to interact with various β-lactamases through van der Waals and H-bonding interactions and can aid the process of recognition within the target. […] Other warheads inspired by previously developed acyclic boronic acids were not considered in this manuscript and will be explored in future works.

OXA-24 = OXA-24 (Acinetobacter baumannii, UniProt Q8RLA6); assay: % inhibition at fixed concentration; type: biochemical
Procedure: (§5) Selection of an appropriate warhead-bearing reagent is crucial for achieving a successful in situ click chemistry. Thus, we assessed the inhibitory activity of the selected warheads against a pool of different β-lactamases to verify their binding specificity for the target. The affinity (inhibitory ability) of 2-4 against 12 representative β-lactamases from class A, B, C, and D was assessed as the percentage of inhibition at a fixed concentration of 200 µM (Table 1).
as §1, §2
(§6) For the β-lactamases test at a fixed concentration previously reported in Table 1, the following conditions were applied (Table 3): […]

CMY-2 = CMY-2 (Klebsiella pneumoniae, UniProt Q48434); assay: % inhibition at fixed concentration; type: biochemical
Procedure: as §5, §1, §2, §6

OXA-48 = OXA-48 (Klebsiella pneumoniae, UniProt Q6XEC0); assay: % inhibition at fixed concentration; type: biochemical; conditions: OXA-48, class D; inhibitor 200 µM; substrate IMI
Procedure: as §5, §1, §2, §6

KPC-2 [6] = target: T2, KPC-2; assay: % inhibition at fixed concentration; type: biochemical
Procedure: as §5, §1, §2, §6

CTX-M-15 = target: T3, CTX-M-15 (Escherichia coli, UniProt Q9EXV5); assay: % inhibition at fixed concentration; type: biochemical
T3 construct: made in house
T3 sequence (Q9EXV5 entry or part of it): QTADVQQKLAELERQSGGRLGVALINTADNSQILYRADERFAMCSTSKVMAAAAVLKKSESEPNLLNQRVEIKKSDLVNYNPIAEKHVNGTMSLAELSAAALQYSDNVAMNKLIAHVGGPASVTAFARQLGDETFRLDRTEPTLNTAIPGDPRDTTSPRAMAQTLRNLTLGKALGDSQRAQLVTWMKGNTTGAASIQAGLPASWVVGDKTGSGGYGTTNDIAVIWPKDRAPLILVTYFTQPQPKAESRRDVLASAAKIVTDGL
Procedure: as §5, §1, §2, §6

KPC-53 = KPC-53 (Klebsiella pneumoniae, UniProt Q9F663, DUP166-167/H272Y); assay: % inhibition at fixed concentration; type: biochemical
Procedure: as §5, §1, §2, §6

IMP-1 = target: T4, IMP-1 (Serratia marcescens, UniProt P52699); assay: % inhibition at fixed concentration; type: biochemical
T4 construct: made in house
Procedure: as §5, §1, §2, §6

ADC-25 = ADC-25 (Acinetobacter baumannii, UniProt A8QIF8); assay: % inhibition at fixed concentration; type: biochemical
Procedure: as §5, §1, §2, §6

VIM-1 = target: T5, VIM-1 (Pseudomonas aeruginosa, UniProt A0A0F7KYQ8); assay: % inhibition at fixed concentration; type: biochemical
T5 construct: made in house
Procedure: as §5, §1, §2, §6

AmpC [7] = target: T1, AmpC; assay: % inhibition at fixed concentration; type: biochemical; design: made in house
Excerpt: Selection of an appropriate warhead-bearing reagent is crucial for achieving a successful in situ click chemistry. Thus, we assessed the inhibitory activity of the selected warheads against a pool of different β-lactamases to verify their binding specificity for the target. […]
as §1, §2, §6

SHV-12 = SHV-12 (Klebsiella pneumoniae, UniProt P0AD64, E235K/G234S/L31Q); assay: % inhibition at fixed concentration; type: biochemical; conditions: SHV-12, class A; inhibitor 200 µM; substrate NCF
NDM-1 = NDM-1 (Klebsiella pneumoniae, UniProt C7C422); assay: % inhibition at fixed concentration; type: biochemical; design: made in house
Procedure: as §5, §1, §2, §6

KPC-2 [8] = target: T2, KPC-2; design: method as in PMID 35792385; conditions: ref [58]; cited from earlier work

T1 sequence (P00811 20-377): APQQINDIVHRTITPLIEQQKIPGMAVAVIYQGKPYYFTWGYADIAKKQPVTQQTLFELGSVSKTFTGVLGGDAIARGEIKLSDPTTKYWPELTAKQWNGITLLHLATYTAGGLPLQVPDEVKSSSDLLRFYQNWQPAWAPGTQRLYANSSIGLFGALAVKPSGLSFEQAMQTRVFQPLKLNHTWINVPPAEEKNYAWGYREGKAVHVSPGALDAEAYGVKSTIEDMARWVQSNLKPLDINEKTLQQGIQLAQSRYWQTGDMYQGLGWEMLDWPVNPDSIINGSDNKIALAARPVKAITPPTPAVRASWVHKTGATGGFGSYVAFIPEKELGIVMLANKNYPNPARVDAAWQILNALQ

## COC(=O)c1cccc(CS(=O)(=O)NCc2cnnn2Cc2cccc(B(O)O)c2)c1 [7a]
AmpC [1]
  Ki: 170 nM
KPC-2 [2]
  Ki: 4600 nM

## C#CCOc1cccc(C(N)=O)c1 [Al-32]
KPC-2 [3]
  AC (amplification coefficient): exceeding three

## C#CCS(=O)(=O)c1ccccc1 [Al-39]
KPC-2 [3]
  AC (amplification coefficient): exceeding three

## C#CCNS(=O)(=O)Cc1cccc(C(=O)OC)c1 [Al-57]
KPC-2 [3]
  AC (amplification coefficient): exceeding three

## C#CCNC(=O)c1ccc(C(=O)OC)cc1 [Al-88]
AmpC [4]
  AC (amplification coefficient): 3-4

## Nc1nnc(SCC(=O)N[C@@H](Cn2cc(C(=O)O)nn2)B(O)O)s1 [MB076]
ADC-7
  Ki: 210 nM

## [N-]=[N+]=NCC(NC(=O)Cc1cccs1)B(O)O (stereo not shown) [compound 1]
[5]
  stability in phosphate buffer: partially degrades

## [N-]=[N+]=NCc1ccccc1B(O)O [compound 2]
OXA-24
  inhibition at 200 µM: 20%
CMY-2
  inhibition at 200 µM: 19%
OXA-48
  inhibition at 200 µM: < 1%
KPC-2 [6]
  inhibition at 100 µM: 35%
CTX-M-15
  inhibition at 200 µM: 0%
KPC-53
  inhibition at 200 µM: 54%
IMP-1
  inhibition at 200 µM: 12%
ADC-25
  inhibition at 200 µM: 27%
VIM-1
  inhibition at 200 µM: 23%
AmpC [7]
  inhibition at 100 µM: 57%
SHV-12
  % of inhibition: 14%
NDM-1
  inhibition at 200 µM: 23%

## [N-]=[N+]=NCc1cccc(B(O)O)c1 [compound 3, (3-(azidomethyl)phenyl)boronic acid]
OXA-24
  inhibition at 200 µM: 24%
CMY-2
  inhibition at 200 µM: 79%
OXA-48
  inhibition at 200 µM: 2%
KPC-2 [6]
  inhibition at 100 µM: 76%
CTX-M-15
  inhibition at 200 µM: 42%
KPC-53
  inhibition at 200 µM: 65%
IMP-1
  inhibition at 200 µM: 11%
ADC-25
  inhibition at 200 µM: 67%
VIM-1
  inhibition at 200 µM: 24%
AmpC [1]
  Ki: 700 nM
AmpC [7]
  inhibition at 100 µM: 100%
AmpC [7]; AmpC, class C, inhibitor 100 µM, substrate NCF
  % of inhibition: completely inhibits
SHV-12
  % of inhibition: 38%
NDM-1
  inhibition at 200 µM: 20%
KPC-2 [8]
  activity vs. KPC-2: sub-µM
KPC-2 [2]
  Ki: 2300 nM

## [N-]=[N+]=NCc1ccc(B(O)O)cc1 [compound 4, (4-(azidomethyl)phenyl)boronic acid]
OXA-24
  inhibition at 200 µM: 26%
CMY-2
  inhibition at 200 µM: 67%
OXA-48
  inhibition at 200 µM: < 1%
KPC-2 [6]
  inhibition at 100 µM: 72%
CTX-M-15
  inhibition at 200 µM: 22%
KPC-53
  inhibition at 200 µM: 55%
IMP-1
  inhibition at 200 µM: 22%
ADC-25
  inhibition at 200 µM: 46%
VIM-1
  inhibition at 200 µM: 33%
AmpC [7]
  inhibition at 100 µM: 81%
SHV-12
  % of inhibition: 48%
NDM-1
  inhibition at 200 µM: 24%
KPC-2 [8]
  activity vs. KPC-2: sub-µM

## NC(=O)c1cccc(OCc2cn(Cc3cccc(B(O)O)c3)nn2)c1 [compound 5]
KPC-2 [3]
  AC (amplification coefficient): 3-4
KPC-2 [2]; KPC-2, values in nM
  Ki: 730 nM
KPC-2 [2]
  improvement compared with the warhead activity: 3 fold

## O=S(=O)(Cc1cn(Cc2cccc(B(O)O)c2)nn1)c1ccccc1 [compound 6]
KPC-2 [3]
  AC (amplification coefficient): 3-4
KPC-2 [2]
  Ki: 800 nM
  improvement compared with the warhead activity: 3 fold
